One data set relates to Cells expressing Ras. The experiment in a line: sensitivity of Ras-expressing cells to drugs with reported splicing inhibition. The conditions noted are these: FIG. 11. The data set is classed as cell-based.
In data set [1] the test system is GSCs relative to NSCs (G166 or CB660 cells). The experiment in a line: cell viability of GSC or NSC cells after SSA / SudC1 (AlamarBlue). The conditions noted are these: dilution series; FIGS. 3B and 3C. The data set is classed as cell-based, human. The source says: (§1) Along with high MPM-2 staining, and little or no phosphorylated BubR1, this is consistent with a pre-anaphase arrest in which the mitotic checkpoint has not been triggered.

In a further data set the target is U2 snRNP subunit SF3b (Homo sapiens, UniProt O75533+Q7RTV0). The conditions noted are these: Kaida et al. 2007; Corrionero et al. 2011; cited from earlier work.
In another data set the test system is GSCs and NSCs. The experiment in a line: cell cycle arrest after SSA or SudC1. The data set is classed as cell-based, human. The following applies: at doses within the efficacy window; data not shown.
Source text: as §1

A further data set deals with GSC-H2B-GFP cells. The experiment in a line: live cell imaging of drug-treated cells. The following applies: for timing of mitoses: GSCs, first hours after drug treatment; for mitotic arrest in live cell imaging: data not shown. It is filed as cell-based, human.
For a further data set, the system named is H2B-GFP expressing GSCs. The experiment in a line: metaphase capture assay with MG132. It is filed as cell-based, human. The following applies: overnight exposure to drug, then MG132 for 2 hours. Here is the method:
The GSC-specific G2/M arrest was characterized by performing metaphase capture assays in H2B-GFP expressing GSCs treated with proteasome inhibitor MG132, which arrests mitotic cells at metaphase, blocking APCCdc20-dependent degradation of Cyclin B (Lampson and Kapoor 2005). After overnight exposure to SudC1 or SSA, cells were treated with MG132 for 2 hours. […] It was also observed that the viability loss in drug-treated GSC cultures results from the death of previously arrested mitotic cells and not interphase GSCs, identifying the cancer-specific mitotic arrest as a causative event in cancer cell death due to splicing inhibition.

The subject of a further data set is GSCs. The experiment in a line: cell cycle arrest phenotype (rounded cells) in GFP-expressing GSCs after shRNA. The data set is classed as cell-based, human. The conditions noted are these: FIG. 2. The source says:
Arrows point to rounded cells, which are those showing a cell arrest phenotype.
In addition, the GSC and NSC containing two of the shRNA sequences targeting PHF5α, KIF11 (positive control), and a random clone (negative control) were examined by immunofluorescence analysis using DAPI staining and a fluorescent microscope. Cells that appeared balled up are ones that suffered cell cycle arrest, while elongated cells were unaffected in their proliferation. […] In contrast, inhibition of PHF5α produced a striking phenotype of a G2/M mitotic arrest in GSCs, but not in NSCs (data not shown).
Ryzinski et al. (Cytogenet. […] Res. 121:232, 2008) identified PHF5α as a bridge protein capable of connecting members of the U2 snRNP, especially U2AF1 to RNA helicases, especially DDX1. To test whether, out of the possible known or unknown roles in a cell, the splicing functions of PHF5α is an important activity contributing to GSC survival and proliferation, shRNA knockdown similar to Example 2 was performed against each member of this bridging interaction—U2AF1 and DDX1.

Data set [2] concerns RNA splicing in GSCs and NSCs. The experiment in a line: splicing defects on gels after SudC1. It is filed as cell-based, human. The following applies: GSCs versus NSCs; FIG. 16. The source says:
This example also describes the effects of two candidate small molecule inhibitors of the U2 snRNP complex, Spliceostatin A (SSA) and Sudemycin C1 (SudC1). […] (Kaida et al. 2007; Corrionero et al. 2011). […] It was reasoned that if the most relevant GSC-specific function of PHF5A is its function in the splicing activity of the U2 snRNP, then these drugs should show a similar pattern of effects on RNA splicing in GSCs and NSCs. This was indeed the case. […] In addition, after PHF5A knockdown, multiple constitutive exons of the well characterized RTK/Ras signaling effector RAF1 and the cancer-associated deacetylase HDAC6 were skipped GSCs but not in normal NSCs.

Data set [3] relates to Non-transformed MEF cells. The experiment in a line: viability after sudemycin treatment. The data set is classed as cell-based, mouse.
Data set [4] relates to normal IMR90 fibroblast cells. The experiment in a line: drug response assay, alamarBlue viability. The conditions noted are these: 0.08-10.0 μM for 24 hours, viability at 72 hours; FIG. 9A. It is filed as cell-based, human. From the text: (§2) Approximately 88% of clinical glioblastoma tumors harbor mutations that activate signaling through the Ras/PI3-kinase pathways (The Cancer Genome Atlas Research Network, Nature 455:1061, 2008). Since PHF5α inhibition is detrimental to a range of glioblastoma cell cultures, but not to the normal NSC from which most glioblastomas are thought to arise, transformation from a normal cell to a cancer cell was examined to determine whether PHF5α dependence was acquired during this process. Accordingly, Ras signaling was activated in normal IMR90 fibroblast cells by infecting with a retrovirus encoding the ElA and Ras oncogenes (EIA was included because Ras alone would be lethal in these cells). These partially transformed fibroblasts were probed for their response to shPHF5α inhibition and to a U2 snRNP splicing inhibitor (sudemycin C1). Viral shRNA knockdown was performed as described in the above examples. For drug response assays, cells were plated in 96-well plates and contacted with a range of sudemycin C1 concentrations (0.08, 0.16, 0.31, 0.63, 1.25, 2.50, 5.0 or 10.0 μM) for a period of 24 hours. Media was then removed and replaced with fresh media, then cell viability was measured 72 hours after drug exposure using the alamarBlue® assay (Invitrogen).
(In general: Alamar Blue is a resazurin reagent that responds to reducing activity.)

In a further data set the test system is IMR90+E1A/Ras. The experiment in a line: drug response assay, alamarBlue viability. It is filed as cell-based, human. The conditions noted are these: 0.08-10.0 μM for 24 hours, viability at 72 hours; FIG. 9A.
Source text: as §2

For data set [5], the system named is MEF cells with the addition of oncogenic Ras signaling. The experiment in a line: viability after sudemycin treatment. The data set is classed as cell-based, mouse.
Source text: as §2, with “(Invitrogen). […]” for “(Invitrogen).”

The next data set relates to RNA splicing. The following applies: Lagisetti et al. 2008, 2009; Fan et al. 2011; cited from earlier work.
The next data set concerns PHF5α. The experiment in a line: immunostained western blot of PHF5α protein after shRNA. The data set is classed as cell-based, human. The conditions noted are these: GSCs (G166, 0827, 0131) and NSCs, relative to shCtrl; FIG. 1B. From the text:
(B) is an immunostained western blot showing PHF5α protein levels are reduced in GSCs (G166, 0827, 0131) and NSCs when exposed to a short hairpin RNA (shRNA) that reduces PHF5α RNA levels (shPHF5α-133 (SEQ ID NO.:11), shPHF5α-402 (SEQ ID NO.:10), shPHF5α-861 (SEQ ID NO.:9)) relative to the levels of PHF5α in cells treated with a non-silencing control shRNA (shCtrl).
(§3) To verify the robustness and reproducibility of PHF5α loss in GSC growth inhibition, the normal NSC control cells and a panel of five GSC primary cell cultures were infected with viruses encoding three different shRNA sequences targeting PHF5α (shPHF5α-133 (SEQ ID NO.:11), shPHF5α-402 (SEQ ID NO.:10), and shPHF5α-861 (SEQ ID NO.:9)), as well as a positive control (shKIF11-555 (SEQ ID NO.:19); blocking kinesin family member 11 (KIF11) prevents centrosome migration, which arrests cells in mitosis) and negative control (shCtrl). Cultures were selected with puromycin, plated at about 1000 cells per well in 96-well plates, and incubated for one week at 37° C./5% CO2 before assaying cell viability using the alamarBlue® assay (Invitrogen, Gand Island, N.Y.). Briefly, resazurin (a blue compound that is non-toxic, cell permeable compound and essentially non-fluorescent) is added to the cell cultures, which is reduced to resorufin upon entering metabolically active cells (in contrast, non-viable or damaged cells cannot do this effectively). Resorufin is a bright red fluorescent molecule that functions as a colorimetric indicator. In addition, all three shRNA viruses were internally validated to knock down PHF5α at both the RNA and protein levels (data not shown).
For orientation: A western blot detects proteins with antibodies after separation by electrophoresis.

The subject of data set [6] is GSC primary cell cultures and normal NSC control cells. The experiment in a line: alamarBlue cell viability after shRNA knockdown. The following applies: shRNA virus, puromycin selection, one week, FIG. 1A. It is filed as cell-based, human.
Source text: as §3

Sequence of PHF5α (Q7RTV0 whole entry): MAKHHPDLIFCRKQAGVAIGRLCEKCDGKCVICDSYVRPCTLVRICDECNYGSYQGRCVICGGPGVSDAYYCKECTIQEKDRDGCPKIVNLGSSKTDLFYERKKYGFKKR

In the case of `Clc1ccccc1C(c1ccccc1)(c1ccccc1)n1ccnc1` [Clotrimazole], the “differential sensitivity of cells expressing Ras” value (“differential sensitivity” for short) in the data set with Cells expressing Ras is listed as “not differentially sensitive”.
As for `CO[C@]1(C)C[C@@]2(CO2)[C@H](O)[C@@H](/C=C/C(C)=C/C[C@@H]2O[C@H](C)[C@H](NC(=O)/C=C\[C@H](C)OC(C)=O)C[C@@H]2C)O1` [SSA, Spliceostatin A], the “viability loss in GSCs relative to NSCs” value in [1] is reported as “greater dose-dependent viability loss in GSCs relative to NSCs”. The “differential sensitivity” value with Cells expressing Ras was “differentially sensitive”. The “binding and inhibition of SF3b” value at U2 snRNP subunit SF3b is “binds to and inhibits”. The cell cycle arrest result in the data set on GSCs and NSCs is given as “characteristic cell cycle arrest in GSCs but not NSCs”. Moreover, in the data set on GSC-H2B-GFP cells, the timing of mitoses result is on record as “did not affect the timing of mitoses for several hours after drug treatment” and the “mitotic arrest in live cell imaging” value is listed as “mitotic arrest pre-metaphase”. For the same compound, in the data set with H2B-GFP expressing GSCs, the “metaphase arrest with MG132” value is recorded as “unable to properly arrest”.
As for `CCN1/C(=C/C(C)=O)Sc2ccc(OC)cc21` [TG003], the “differential sensitivity” value with Cells expressing Ras was “not differentially sensitive”.
In the case of `[H]/N=C(\N/C(=N/[H])NCCCCCCNC(=N)NC(=N)Nc1ccc(Cl)cc1)Nc1ccc(Cl)cc1` [chlorhexidine], in the data set with Cells expressing Ras, the “differential sensitivity” value was “not differentially sensitive”.
The same measure, in the same setting: the result for `Fc1ccc(C(c2ccc(F)cc2)N2CCN(C/C=C/c3ccccc3)CC2)cc1` [flunarizine] reads “not differentially sensitive”.
On to “DDX1-301: shRNA targeting DDX1, ACACGGTGTTCCTTATGTTATA, SEQ ID NO. 18 (listed as DNA, chemistry not fully specified)”, for which, in the data set on GSCs, the cell cycle arrest result was “undergone cell cycle arrest”.
As to Pladienolide B, the “differential sensitivity” value with Cells expressing Ras is on record as “differentially sensitive”.
With Sudemycin C1 [SudC1], the splicing defects result in data set [2] is listed as “dose-dependent GSC-specific splicing defects”. Also, the “sensitivity of cell viability” value is given as “relatively resistant” in data set [3], “relatively resistant” in data set [4], “greatly sensitized” in the data set with IMR90+E1A/Ras and “greatly sensitized” in data set [5]. Besides, the “viability loss in GSCs relative to NSCs” value in data set [1] is reported as “greater dose-dependent viability loss in GSCs relative to NSCs”. In addition, the “differential sensitivity” value in the data set with Cells expressing Ras is “differentially sensitive”. Also, the cell cycle arrest result with GSCs and NSCs was “characteristic cell cycle arrest in GSCs but not NSCs”. Further, in the data set on RNA splicing, the “modulation of RNA splicing” value is recorded as “modulates RNA splicing”. Besides, the timing of mitoses entry in the data set with GSC-H2B-GFP cells is reported as “did not affect the timing of mitoses for several hours after drug treatment”. For the same compound, in the data set on GSC-H2B-GFP cells, the “mitotic arrest in live cell imaging” value is “mitotic arrest pre-metaphase”. Moreover, in the data set with H2B-GFP expressing GSCs, the “metaphase arrest with MG132” value is “unable to properly arrest”.
For “shPHF5α-133: shRNA targeting PHF5α, ACTCAACCAAGATCTTCTAAAA, SEQ ID NO. 11 (listed as DNA, chemistry not fully specified)”, in the data set on PHF5α, the PHF5α protein levels result is on record as “reduced”. In addition, in data set [6], the “proliferation of GSCs compared to NSCs” value is given as “greater reduction in proliferation of GSCs compared to normal neural stem cells”.
On the same counts, the results for “shPHF5α-402: shRNA targeting PHF5α, AGCATTTACTTGTTTAACACTT, SEQ ID NO. 10 (listed as DNA, chemistry not fully specified)” are “reduced” and “greater reduction in proliferation of GSCs compared to normal neural stem cells”.
“shPHF5α-861: shRNA targeting PHF5α, CGCCCACTAGTCTCATATTATT, SEQ ID NO. 9 (listed as DNA, chemistry not fully specified)”: in the data set with PHF5α, the PHF5α protein levels entry is “reduced”. In addition, in [6], the “proliferation of GSCs compared to NSCs” value was “greater reduction in proliferation of GSCs compared to normal neural stem cells”. In addition, the cell cycle arrest result in the data set with GSCs is given as “undergone cell cycle arrest”.
With “shU2AF1-100: shRNA targeting U2AF1, CGGCTGTGATTGACTTGAATAA, SEQ ID NO. 1 (listed as DNA, chemistry not fully specified)”, in the data set with GSCs, the cell cycle arrest result was “undergone cell cycle arrest”.

The values are drawn from patent US20150025017A1, “COMPOSITIONS AND METHODS FOR TREATING CANCER” (Fred Hutchinson Cancer Research Center, priority 2012, published 2015).
